The values that follow come from publication PMC12096669, “Structural isomerisation affects the antitubercular activity of adamantyl-isoxyl adducts” (Journal of Enzyme Inhibition and Medicinal Chemistry, 2025).

Assay [1] deals with S. pyogenes NCTC 8198. The experiment in a line: Non-mycobacterial REMA assay. The format is cell-based. The settings on record: Streptococcus pyogenes, NCTC8198, read-out: Minimum inhibitory concentration 95%.
For assay [2], the system named is A. baumannii NCTC 12156. Description: Non-mycobacterial REMA assay. The format is cell-based. The following applies: Acinetobacter baumannii, NCTC12156, read-out: Minimum inhibitory concentration 95%.
Assay [3] relates to S. aureus NCTC 2981. Description: Non-mycobacterial REMA assay. The following applies: Staphylococcus aureus, NCTC2981, read-out: Minimum inhibitory concentration 95%. The format is cell-based.
Assay [4] relates to S. agalactiae NCTC 8181. The experiment in a line: Non-mycobacterial REMA assay. The settings on record: Streptococcus agalactiae, NCTC8181, read-out: Minimum inhibitory concentration 95%. The format is cell-based.
In assay [5] the test system is HepG2 human liver cancer cell line. Description: MTS cytotoxicity assay, liver cells. The format is cell-based. The settings on record: 96 h, read-out: MTS percentage survival @ 100 µM. A general note: Tetrazolium dyes change colour on reduction, which living cells bring about.
The subject of assay [6] is S. enterica NCTC 6754. The experiment in a line: Non-mycobacterial REMA assay. The format is cell-based. The settings on record: Salmonella enterica, NCTC6754, read-out: Minimum inhibitory concentration 95%. The procedure:
(§1) Bacterial minimum inhibition concentrations (MIC) were determined using the Resazurin Microtiter Assay (REMA) method according to Palomino et al.[28] Stock solutions of the tested compounds were prepared in sterile dimethyl sulfoxide (DMSO), then diluted in 7H9OPALPen^1Cyc^10(Kan^25) to obtain a final drug concentration range of 32–0.032 μg/mL. A suspension of the test Mycobacterium was cultured in 7H9OPALPen^1Cyc^10(Kan^25) containing 0.05% v/v Tween^80 for one week at 37 °C, 5% CO2. The bacterial suspension was adjusted to 0.5 McFarland and diluted in 7H9OPALPen^1Cyc^10(Kan^25) 1:25. 100 μL of the inoculum was added to each well of a 96-well microplate together with 100 μL of the compound titration. The plate was incubated at 37 °C, 5% CO2. After 5 days, 10.5 μL 0.1% (w/v) sterile resazurin (solubilised in sterile PBS containing 0.02% v/v Tween^80) was added. Reduced resazurin was detected using fluorescence (Ex/Em 530/590 nm) in a FLUOstar Optima, BMG Labtech. All titre measurements were plotted in SigmaPlot™ and 4-parameter logistic (4PL) model regressions conducted. The relative MIC95 of each curve was calculated and averaged (Table 1). Testing was performed in duplicate with two independent biological repeats. […] Though, for these cultures, dilutions were performed at 1:125 prior to inoculation of the plate and incubation for 4 h (Supplementary Table 3). Known antitubercular agents used in this study were rifampicin (RIF), isoniazid (INH), ISO, EMB, ethionamide (ETH), linezolid (LZD), delamanid (DEL) and moxifloxacin (MOX).

Assay [7] relates to E. coli K12. The experiment in a line: Non-mycobacterial REMA assay. The format is cell-based. The following applies: Escherichia coli, read-out: Minimum inhibitory concentration 95%. The procedure: as §1
In assay [8] the test system is RAW264.7 murine macrophage cells. The experiment in a line: cells. The format is cell-based. The settings on record: for viability at 100 µM / IC50: Mus musculus; for viability at 100 µM: RAW264.7, 96 h, read-out: MTS percentage survival @ 100 µM; for IC50: RAW264.7 macrophages, 0 to 100 µM, read-out: IC50 (cell viability, MTS assay); for selectivity index (SI): from RAW264.7 IC50 and Mtb MIC95.

Assay [9] has as its system Mtb mc^27902 pMV261. The experiment in a line: microbe, parasite or virus in culture. The format is cell-based. The settings on record: Mycobacterium tuberculosis.
In assay [10] the test system is E. cloacae NCTC 10005. Description: Non-mycobacterial REMA assay. The format is cell-based. The settings on record: Enterobacter cloacae, NCTC10005, read-out: Minimum inhibitory concentration 95%.
In assay [11] the test system is AC10 hybrid adult ventricular cardiomyocytes. Description: MTS cytotoxicity assay, cardiomyocytes. The settings on record: Homo sapiens, AC10 cardiac, 96 h, read-out: MTS percentage survival @ 100 µM. The format is cell-based.
Assay [12] has as its system P. aeruginosa DSM 19880. Description: Non-mycobacterial REMA assay. The format is cell-based. The settings on record: Pseudomonas aeruginosa, DSM19880, read-out: Minimum inhibitory concentration 95%.
For assay [13], the system named is E. faecium NCTC 7171. Description: Non-mycobacterial REMA assay. The settings on record: Enterococcus faecium, NCTC7171, read-out: Minimum inhibitory concentration 95%. The format is cell-based.
The subject of assay [14] is K. pneumoniae NCTC 9633. Description: Non-mycobacterial REMA assay. The following applies: Klebsiella pneumoniae, NCTC9633, read-out: Minimum inhibitory concentration 95%. The format is cell-based.
Assay [15] deals with E. faecalis NCTC 775. Description: Non-mycobacterial REMA assay. The format is cell-based. The following applies: Enterococcus faecalis, NCTC775, read-out: Minimum inhibitory concentration 95%.
Assay [16] has as its system B. cereus NCTC 7464. Description: Non-mycobacterial REMA assay. The format is cell-based. The following applies: Bacillus cereus, NCTC7464, read-out: Minimum inhibitory concentration 95%.
Assay [17] has as its system Mtb mc^27902 pMV261. The format is cell-based, Mycobacterium tuberculosis.
For assay [18], the system named is Mtb mc^27902 pMV261. The format is cell-based, Mycobacterium tuberculosis. The following applies: in the presence of glucose; 37 °C, 30 min.
In assay [19] the test system is M. bovis BCG. The settings on record: library of 52,000 compounds; cited from earlier work.
The mark [20] stands for this setting: RAW264.7 macrophage, 100 µM, 96 h.
The mark [21] stands for this setting: mc^27902 pMV261, REMA, read-out: Mtb MIC95.
The mark [22] stands for this setting: values used for the SI, in brackets, […], read-out: MIC95.
Where [23] appears, read: values used for the SI, […], read-out: MIC95.

Converted amounts (≈) assume the structure as drawn. Like-named read-outs stand apart in the source and are kept apart here.

`CC(=O)NC[C@H]1CN(c2ccc(N3CCOCC3)c(F)c2)C(=O)O1` [LZD, linezolid]: the MIC was 0.543 µg/mL (≈ 1.61 µM) in [1]; 31.1 µg/mL (≈ 92.1 µM) in assay [2]; 23.7 µg/mL (≈ 70.3 µM) in assay [3]; 2.1 µg/mL (≈ 6.23 µM) in assay [4]; over 32 µg/mL in assay [6]; over 32 µg/mL in [7]. Further, the MIC was 0.91 µg/mL in assay [9] (setting [21]); 0.55 µg/mL in assay [9] (setting [22]); 1.63 µM in assay [9] (setting [23]); over 32 µg/mL in assay [10]; over 32 µg/mL in assay [12]; 0.158 µg/mL (≈ 0.468 µM) in assay [13]. Also, the MIC in assay [14] was over 32 µg/mL; in assay [15] it was 0.921 µg/mL (≈ 2.73 µM); in [16] it was 1.75 µg/mL (≈ 5.2 µM). In addition, the viability at 100 µM was 105 ± 5.1% in [5], 38.3% in assay [8] (setting [20]) and 103 ± 1.8% in assay [11]. In addition, in [8], the IC50 was 16.2 µM.

Consider `CC[C@@H](CO)NCCN[C@@H](CC)CO` [EMB, Ethambutol], for which the MIC in [1], in assay [2], in assay [3], in assay [4], in [6] and in assay [7] was over 32 µg/mL throughout. The MIC in assay [9] (setting [21]) was 1.99 µg/mL; in assay [10], over 32 µg/mL; in [12], over 32 µg/mL; in assay [13] it was over 32 µg/mL; in assay [14] it was over 32 µg/mL; in assay [15] it was over 32 µg/mL. Moreover, the MIC in assay [16] is over 32 µg/mL. Moreover, the viability at 100 µM in assay [5] turned out to be 95.2 ± 6%; in assay [8] (setting [20]) it was 88.5 ± 8.6%; in assay [11] it was 93.7 ± 2.7%.

With `CC(C)CCOc1ccc(NC(=S)NC23CC4CC(CC(C4)C2)C3)cc1` [Ad-1-ISO, 1-((3s,5s,7s)-adamantan-1-yl)-3–(4-(isopentyloxy)phenyl)thiourea], the MIC in [1], in assay [2], in [3], in assay [4], in assay [6] and in [7] was over 32 µg/mL throughout. Moreover, the MIC is 1.08 µg/mL in assay [9] (setting [21]); over 32 µg/mL in assay [10]; over 32 µg/mL in assay [12]; over 32 µg/mL in [13]; over 32 µg/mL in assay [14]; over 32 µg/mL in assay [15]. For the same compound, the MIC in assay [16] was over 32 µg/mL. Further, the “effect on mycolic acid biosynthesis (FAMEs/MAMEs, TLC/autoradiography)” value in [17] was “Depletion of mycolates into the cell wall was only observed at the highest concentrations tested”. The “TMM levels (TLC)” value in assay [17] (at the highest concentrations, […]) is recorded as “slight increase in the TMM levels”. The viability at 100 µM in assay [5] is 16.1 ± 7.2%; in assay [8] (setting [20]), 73.8 ± 7.5%; in assay [11] it was 55 ± 13.2%. Further, in [8], the half-inhibitory concentration (IC50) is over 100 µM. In assay [8], the “selectivity index (SI)” value is on record as over 100. Also, in assay [18], the “efflux of EtBr” value is “significantly increased the overall efflux of EtBr”.

On to `O=C(N/N=C/c1cccc(F)c1)C12CC3CC(CC(C3)C1)C2` [adamantyl-hydrazone], for which, in assay [19], the MIC was under 2 µg/mL.

For `CC(C)=CCC/C(C)=C/CNCCNC1C2CC3CC(C2)CC1C3` (centres unmarked) [SQ109, N-Adamantan-2-yl-N’-((E)-3,7-dimethylocta-2,6-dienyl)ethane-1,2-diamine], the MIC in assay [1] is over 32 µg/mL; in assay [2], 20.7 µg/mL (≈ 62.7 µM); in assay [3], 16.9 µg/mL (≈ 51 µM); in [4] it was over 32 µg/mL; in assay [6], over 32 µg/mL; in assay [7] it was 17.4 µg/mL (≈ 52.5 µM). The MIC in [9] (setting [21]) is 0.33 µg/mL; in assay [9] (setting [22]), 0.12 µg/mL; in assay [9] (setting [23]) it was 0.36 µM; in assay [10], 16.8 µg/mL (≈ 50.9 µM); in assay [12] it was over 32 µg/mL; in [13] it was 20.1 µg/mL (≈ 60.8 µM). Besides, the MIC in assay [14] was over 32 µg/mL; in assay [15], 21.1 µg/mL (≈ 63.8 µM); in assay [16] it was over 32 µg/mL. In addition, the viability at 100 µM in assay [5] was found to be 15.1 ± 4.1%; in assay [8] (setting [20]), 61.1 ± 2.9%; in assay [11] it was 40.2 ± 2.3%. Also, the concentration for half-maximal inhibition (IC50) in assay [8] was over 100 µM. Also, in assay [8], the “selectivity index (SI)” value was over 100.

For `CO[C@H]1/C=C/O[C@@]2(C)Oc3c(C)c(O)c4c(O)c(c(/C=N/N5CCN(C)CC5)c(O)c4c3C2=O)NC(=O)/C(C)=C\C=C\[C@H](C)[C@H](O)[C@@H](C)[C@@H](O)[C@@H](C)[C@H](OC(C)=O)[C@@H]1C` [RIF, rifampicin], the MIC in assay [1] was 6.16 µg/mL (≈ 7.48 µM); in [2] it was 1.36 µg/mL (≈ 1.66 µM); in [3] it was under 0.0125 µg/mL; in assay [4], 0.08 µg/mL (≈ 0.0972 µM); in assay [6], 12.8 µg/mL (≈ 15.5 µM); in assay [7] it was 3.03 µg/mL (≈ 3.69 µM). Also, the MIC in assay [9] (setting [21]) is 0.04 µg/mL; in assay [10], over 12.8 µg/mL; in [12] it was over 12.8 µg/mL; in assay [13], 1.73 µg/mL (≈ 2.11 µM); in assay [14], over 12.8 µg/mL; in [15] it was over 12.8 µg/mL. Besides, the MIC in assay [16] came to 0.045 µg/mL (≈ 0.0547 µM). Also, the viability at 100 µM in assay [5] was 47.7 ± 3.2%; in assay [8] (setting [20]), 66.3 ± 5%; in assay [11], 40.7 ± 6.6%.

For `NNC(=O)c1ccncc1` [INH, isoniazid], the MIC in assay [1], in [2], in [3], in [4], in assay [6] and in [7] was over 32 µg/mL throughout. For the same compound, the MIC is 0.04 µg/mL in assay [9] (setting [21]); over 32 µg/mL in assay [10]; over 32 µg/mL in assay [12]; over 32 µg/mL in assay [13]; over 32 µg/mL in [14]; over 32 µg/mL in assay [15]. In [16], the MIC was over 32 µg/mL. For the same compound, the viability at 100 µM in [5] is 97 ± 3.8%; in [8] (setting [20]), 96.3 ± 2%; in assay [11], 92.6 ± 1.2%.

Consider `CCc1cc(C(N)=S)ccn1` [ETH, ethionamide], for which the MIC in assay [1], in [2], in [3], in assay [4], in assay [6] and in [7] was over 32 µg/mL each time. Also, the MIC is 1.05 µg/mL in [9] (read-out: Mtb MIC95); over 32 µg/mL in [10]; over 32 µg/mL in assay [12]; over 32 µg/mL in assay [13]; over 32 µg/mL in assay [14]; over 32 µg/mL in assay [15]. For the same compound, in assay [16], the MIC is over 32 µg/mL. Also, the viability at 100 µM in assay [5] was 92.7 ± 7%; in assay [8], 100 ± 5.6%; in assay [11], 90.5 ± 4.7%.

As a reminder, the IC50 is the concentration at which inhibition is half-maximal.
